We go through 14 compounds from article PMC4648318, “A novel 2,5-diaminopyrimidine-based affinity probe for Bruton’s tyrosine kinase” (Scientific Reports, 2015).

The target in assay [1] is T1, Btk (Homo sapiens, UniProt Q06187). The assay is described as follows: Kinase enzymology assay (HTRF KinEase). Format: biochemical. More on the design: purchased Carna Biosciences. The settings on record: enzymatic assay; values marked * are a single run of duplicates, all others are means of two individual measurements. How it is done: Kinases were purchased from Carna Biosciences. Kinase enzymology assays were performed according to the protocols specified for the HTRF® KinEase™ assays sold by Cisbio Bioassays.
In general terms: Time-resolved FRET reads energy transfer from a long-lived donor to a nearby acceptor.
Target sequence in this assay (Q06187 whole entry): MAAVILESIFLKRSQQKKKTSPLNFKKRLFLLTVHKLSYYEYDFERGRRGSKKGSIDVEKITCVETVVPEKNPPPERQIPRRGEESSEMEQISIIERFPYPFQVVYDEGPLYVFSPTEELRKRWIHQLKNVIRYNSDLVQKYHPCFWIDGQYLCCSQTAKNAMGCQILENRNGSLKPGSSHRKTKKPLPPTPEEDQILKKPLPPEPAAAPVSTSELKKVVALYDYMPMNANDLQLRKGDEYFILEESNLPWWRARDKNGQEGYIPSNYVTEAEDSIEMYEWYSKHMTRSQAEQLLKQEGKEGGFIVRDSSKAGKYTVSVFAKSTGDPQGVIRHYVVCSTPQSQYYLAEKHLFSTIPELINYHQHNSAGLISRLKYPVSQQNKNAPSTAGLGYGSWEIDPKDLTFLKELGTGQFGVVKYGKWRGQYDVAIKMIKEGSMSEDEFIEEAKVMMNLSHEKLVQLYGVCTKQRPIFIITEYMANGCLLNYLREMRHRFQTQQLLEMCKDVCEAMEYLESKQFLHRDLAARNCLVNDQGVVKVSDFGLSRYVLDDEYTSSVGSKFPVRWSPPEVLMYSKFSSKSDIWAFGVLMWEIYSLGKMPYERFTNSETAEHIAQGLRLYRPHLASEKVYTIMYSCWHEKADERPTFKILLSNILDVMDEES

Assay [2] concerns the target T1, Btk. The assay is described as follows: Competition assay: blocking of probe 14 labeling of Btk in cells. The format is cell-based. To be noted: inhibitor 1 μM for 1 hour, then 0.5 μM probe 14 for 2 hours, OCI-Ly7 cells. How it is done:
Competition assay. LY7 cells were preincubated with the compounds (1 μM) for 1 h before labeling with probe 14 under the proper time and concentration conditions. Then, the cells were lysed and analyzed as described above. Supplementary figure S1: competition experiment in OCI-Ly7 cells (a) and Jurkat cells (b). 1.5×10^6 cells were pre-incubated with compounds for 1h at 1μM before labeling with probe 14 for 2h at 0.5μM. Then, lysed, quantified and analyzed by SDS/PAGE and fluorescent gel scanning (fluorescence, CY2).
Target sequence in this assay (Q06187 whole entry): as above

Assay [3] deals with T1, Btk. The assay is described as follows: Kinetic study of Btk inhibitors (kinact/Ki, HTRF KinEase). More on the design: purchased Carna Biosciences. The format is biochemical. The settings on record: 0.5 nM Btk, room temperature, preincubation 0-20 min. How it is done:
The kinase assays were performed at room temperature. The compounds with serial dilution in DMSO were added into reaction buffer with 0.5 nM Btk, incubating with different periods of time (0 min, 4 min, 8 min, 12 min, 16 min, and 20 min). Enzyme reaction was started by adding ATP and substrate to the reaction mixture. The enzyme activity was measured with HTRF® KinEase™ assays. The data analysis was guided by the book, Enzyme Kinetics by Hans Bisswanger[16].
Target sequence in this assay (Q06187 whole entry): as above

The target in assay [4] is T1, Btk. Nature of the assay: Recombinant protein labeling assay. Format: binding. The settings on record: recombinant Btk (0.5 μg). The text has this:
[…] The gel was then blotted, and the total Btk levels were detected by standard […]. The concentration course labeling procedure was similar to that for the time course labeling.
Target sequence in this assay (Q06187 whole entry, species assumed): as the sequence (Q06187 whole entry) above

The subject of assay [5] is Jurkat cells. The assay is described as follows: Cellular labeling by probe 14 in Jurkat cells (T-cell line that does not express Btk). Format: cell-based. To be noted: T-cell line without Btk (Supplementary Figure S1). The procedure: Supplementary figure S1: competition experiment in OCI-Ly7 cells (a) and Jurkat cells (b). 1.5×10^6 cells were pre-incubated with compounds for 1h at 1μM before labeling with probe 14 for 2h at 0.5μM. Then, lysed, quantified and analyzed by SDS/PAGE and fluorescent gel scanning (fluorescence, CY2).

For assay [6], the target named is T1, Btk. The assay is described as follows: Cellular labeling of Btk by probe 14 in OCI-Ly7 cells. The format is cell-based. How it is done:
Labeling of Btk by probe 14. A total of 1.5 × 10^6 cells were treated with probe 14 at 1 μM for different lengths of times (5 min, 10 min, 20 min, 30 min, 1 h, 2 h, 3 h, or 4 h), washed, lysed in cell lysis buffer (Beyotime) containing 1 mM PMSF and 10 mM NaF (Invitrogen), and centrifuged. The sample protein concentrations were quantified using a NanoDrop 2000 spectrophotometer, and the samples were adjusted to the same concentration then analyzed by SDS/PAGE and fluorescent gel scanning (fluorescence, CY2). The gel was then blotted, and the total Btk levels were detected by a standard Western blot. The concentration course labeling procedure was similar to that for the time course labeling.
Target sequence in this assay (Q06187 whole entry): as above

Where “and” joins values, the source holds several entries; their conditions need not be identical. Identical values can stand only once. Entries after “also recorded” stand apart in the source; their conditions may differ. Counter-ions that a name gives are not always drawn. Some results are limits rather than exact numbers.

On to `C=CC(=O)NCC(=O)Nc1cccc(Nc2ncc(Nc3cc(NC(=O)c4cccc(C(F)(F)F)c4)ccc3C)cn2)c1` [Compound 1], for which the 50% inhibitory concentration (IC50) (usually the concentration at which inhibition is half-maximal) in assay [1] stood at 16.7 nM.

For `C=CC(=O)Nc1cccc(Nc2ncc(NC(=O)c3cc(NC(=O)c4cccc(C(F)(F)F)c4)ccc3C)cn2)c1` [Compound 2], the “Blocking of the labeling of Btk by probe 14” value in assay [2] was “effectively blocked; also recorded: completely competed off”. As to `C=CC(=O)NCCC(=O)Nc1cccc(Nc2ncc(NC(=O)c3cc(NC(=O)c4cccc(C(F)(F)F)c4)ccc3C)cn2)c1` [Compound 3], in assay [1], the IC50 amounted to 26.7 ± 5.74 nM.

In turn, `C=CC(=O)N1CCC[C@H]1C(=O)Nc1cccc(Nc2ncc(NC(=O)c3cc(NC(=O)c4cccc(C(F)(F)F)c4)ccc3C)cn2)c1` [Compound 4] displayed an IC50 in assay [1] of 52.9 ± 0.95 nM.

For `C=CC(=O)N[C@@H](C)C(=O)Nc1cccc(Nc2ncc(NC(=O)c3cc(NC(=O)c4cccc(C(F)(F)F)c4)ccc3C)cn2)c1` [Compound 5], in assay [1], the IC50 is 44 ± 8.13 nM. Consider `C=CC(=O)N[C@@H](CC(C)C)C(=O)Nc1cccc(Nc2ncc(NC(=O)c3cc(NC(=O)c4cccc(C(F)(F)F)c4)ccc3C)cn2)c1` [Compound 6, (S)-N-(2-((3-(2-acrylamido-4-methylpentanamido)phenyl)amino)pyrimidin-5-yl)-2-methyl-5-(3-(trifluoromethyl)benzamido)benzamide], for which the half-maximal inhibitory concentration (IC50) in assay [1] was > 100 nM and 114 nM. For `C=CC(=O)N[C@@H](Cc1ccccc1)C(=O)Nc1cccc(Nc2ncc(NC(=O)c3cc(NC(=O)c4cccc(C(F)(F)F)c4)ccc3C)cn2)c1` [Compound 7], the IC50 in assay [1] was > 100 nM and 140 nM. `C=CC(=O)N[C@@H](CO)C(=O)Nc1cccc(Nc2ncc(NC(=O)c3cc(NC(=O)c4cccc(C(F)(F)F)c4)ccc3C)cn2)c1` [Compound 8]: in assay [1], the IC50 came to 27.4 ± 2.6 nM. Consider `C=CC(=O)N[C@@H](CC(N)=O)C(=O)Nc1cccc(Nc2ncc(NC(=O)c3cc(NC(=O)c4cccc(C(F)(F)F)c4)ccc3C)cn2)c1` [Compound 9], for which the IC50 in assay [1] is 15 to 20 nM and 19.8 nM. On to `C=CC(=O)N[C@@H](CCC(=O)O)C(=O)Nc1cccc(Nc2ncc(NC(=O)c3cc(NC(=O)c4cccc(C(F)(F)F)c4)ccc3C)cn2)c1` [Compound 10], for which the half-maximal inhibitory concentration (IC50) in assay [1] was 15 to 20 nM and 14.7 nM. Consider `C=CC(=O)N[C@@H](CCCCN)C(=O)Nc1cccc(Nc2ncc(NC(=O)c3cc(NC(=O)c4cccc(C(F)(F)F)c4)ccc3C)cn2)c1` [Compound 11, Trifluoroacetate of (S)-N-(2-((3-(2-acrylamido-6-aminohexanamido)phenyl)amino)pyramidin-5-yl)-2-methyl-5-(3-(trifluoromethyl)benzamido)benzamide], for which the IC50 in assay [1] was 63 nM and 62.8 nM. The kinact/KI (in general, the second-order rate constant of inactivation) in assay [3] turned out to be 135000 ± 4e+08 M⁻¹ s⁻¹. With `C=CC(=O)N[C@@H](Cc1cnc[nH]1)C(=O)Nc1cccc(Nc2ncc(NC(=O)c3cc(NC(=O)c4cccc(C(F)(F)F)c4)ccc3C)cn2)c1` [Compound 12], in assay [1], the concentration for half-maximal inhibition (IC50) is 64.2 ± 4.95 nM. With `C#CCCC(=O)NCCCC[C@H](NC(=O)C=C)C(=O)Nc1cccc(Nc2ncc(NC(=O)c3cc(NC(=O)c4cccc(C(F)(F)F)c4)ccc3C)cn2)c1` [Compound 13], the IC50 in assay [1] was 38 nM and 37.5 nM. Besides, the kinact/KI in assay [3] was found to be 75000 ± 8e+08 M⁻¹ s⁻¹. Take `C=CC(=O)N[C@@H](CCCCNC(=O)CCC1=[N+]2C(=Cc3c(C)cc(C)n3[B-]2(F)F)C=C1)C(=O)Nc1cccc(Nc2ncc(NC(=O)c3cc(NC(=O)c4cccc(C(F)(F)F)c4)ccc3C)cn2)c1` [Compound 14, (S)-3-(3-((5-acrylamido-6-((3-((5-(2-methyl-5-(3-(trifluoromethyl)benzamido)benzamido)pyrimidin-2-yl)amino)phenyl)amino)-6-oxohexyl)amino)-3-oxopropyl)-5,5-difluoro-7,9-dimethyl-5H-dipyrrolo[1,2-c:2',1'-f][1,3,2]diazaborinin-4-ium-5-uide]: the “Incubation time at which fluorescent signals reached a maximum” value in assay [4] is 2 h. Moreover, the “Labeling in Jurkat cells” value in assay [5] is recorded as “no significant labeling”. The “Saturation rate of labeling compared with PCI-33380” value in assay [6] (OCI-Ly7 cells (Supplementary Figure S2)) is on record as “slower saturation rate”. Further, the “Probe concentration at which Btk band intensity reached saturation” value in assay [6] (OCI-Ly7 cells, concentration course) was determined as 0.5 µM. In assay [6] (OCI-Ly7 cells, time course), the “Incubation time sufficient for labeling” value worked out at 2 h.
